Measurements: article PMC5460925, “Degradation Paradigm of the Gut Hormone, Pancreatic Polypeptide, by Hepatic and Renal Peptidases” (Endocrinology, 2017)

How the values were obtained:
mouse Y4 receptor = target: T1, mouse Y4 receptor (Mus musculus, UniProt Q61041); experiment: Y4 receptor binding assay (125I-PP competition); conditions: membranes of HEK293 cells overexpressing mouse Y4 receptor; competition with 125I-PP (100 pM); 90 min, 4°C; mean ± SEM of three to five separate experiments; read-out: IC50 (half maximal inhibitory concentration), Y4 receptor binding affinity
T1 construct: expressed in transfected cells; host or cells: HEK293
Procedure: Transfected HEK293 cells overexpressing the mouse Y4 receptor were prepared and binding assays performed as previously described ([29]). Isolated cell membranes (protein concentration, 1 to 2 µg/mL) were incubated for 90 minutes in siliconized polypropylene tubes together with ^125I-PP [1 kBq (100 pM)] and a dose response of unlabeled competing peptides at 4°C in binding buffer [20 mM HEPES (pH 7.4), 1 mM MgCl2, 5 mM CaCl2, 0.1% bovine serum albumin, and protease inhibitors (0.2 mM phenylmethylsulfonyl fluoride, 0.1 mM Diprotin A, and 10 µM phosphoramidon ( all from Sigma-Aldrich)] in a final assay volume of 0.5 mL. PP was iodinated as previously described ([8]) using ^125I from GE Healthcare Life Sciences (Amersham, UK). Pelleted membranes were washed with 5 mL ice-cold assay buffer, and the membranes were centrifuged at 15,874g for 3 minutes at 4°C, as described, to separate bound and free label. Bound radioactivity was measured using a γ-counter (NE 1600; NE Technology Ltd, Reading, UK). Specific binding was calculated as the difference between the amount of ^125I-PP bound in the absence (total binding) and presence of 5 μM unlabeled competing peptide (nonsaturable binding). All curves were performed with points in triplicate. Half maximal inhibitory concentration values were calculated using Prism, version 5.01 (GraphPad Software Inc., San Diego, CA) using a three-parameter logistic equation for the nonlinear regression fit: Y = bottom + (top − bottom)/1 + 10^(LogEC50 − X), where EC50 is the half maximal effective concentration.

[1] = system: food intake in C57/BL6 mice; experiment: Acute feeding studies (food intake) in overnight-fasted mice; format: in vivo, mouse
Procedure: All animal procedures were approved by the British Home Office, under the United Kingdom Animal (Scientific Procedures) Act 1986 (project license, 70/6402). Adult male C57/BL6 mice (Harlan, Wyton, UK) weighing 20 to 25 g were maintained in individual cages under controlled temperature (21°C to 23°C) and light (12-hour light/dark cycle, with lights on at 7:00 AM). The mice had ad libitum access to water and normal chow RM1 (Special Diet Services, Devon, UK), unless stated otherwise. For acclimatization, the mice were regularly handled and given 2 sham subcutaneous (SC) and/or intraperitoneal (IP) injections of saline. Before each feeding study, the mice were fasted overnight, and the injections were performed during the early light phase (8:00 to 10:00 AM). The mice were stratified by body weight. To investigate the anorectic effects of DPPIV-resistant analogs, the mice were stratified into treatment groups and administered a SC injection (maximum volume, 100 µL) of vehicle, PP, PP3-36, PP2-36, or PP-Ala0 (n = […]). Food intake was measured at 1, 2, 4, and 8 hours after injection to compare the peptides with short half-lives (PP and its endogenous degradation product, PP3-36) and, in a separate experiment, at 24 hours after injection for peptides with modifications (PP-Ala0 and PP2-36, using PP as the comparator). A PP analog with global modifications for enzyme resistance (PP-x) was also investigated and administered as a SC injection (maximum volume, 100 µL) at a high and low dose (n = 9). Food intake was measured at 1, 2, 4, and 8 hours after injection. […] This dose of phosphoramidon was sufficient to inhibit NEP activity ([30]). Food intake was measured at 1, 2, 4, 8, 24, and 48 hours after injection.

in vivo = experiment: in vivo; set-up: species or system mouse; conditions: for level at time molar at 1.5 h: male, C57BL/6, mouse, plasma level of PP at 90 minutes
Procedure: The mice were divided into four treatment groups according to body weight. A protocol similar to that used for the phosphoramidon feeding study was used, with an IP injection, followed by a SC injection 15 minutes later (maximum volume, 50 µL for each injection) of phosphoramidon (0, 7, 20, and 60 mg/kg IP), followed by PP (150 nmol/kg SC in saline; n = 4 to 6; […]). […] Additional mice (n = 2) underwent overnight fasting and were culled at 0 minutes after injection of the control substances (saline SC and vehicle IP) for measurement of the baseline levels of circulating PP. The blood was immediately removed via cardiac puncture and centrifuged at 6000 rpm (Sigma 3K18; 12348 rotor; Sigma-Aldrich) for 10 minutes. The plasma was stored at −20°C until analysis. The plasma samples were assayed using an established in-house PP RIA ([8]). The anti-PP antibody was elevated in rabbit against human PP and recognized PP (and other truncated forms) but not in other PP-fold peptides or gastrointestinal peptides. ^125I-PP was prepared using the iodogen method and purified using HPLC. The assay was performed in duplicate in a total volume of 700 µL of 0.06 M phosphate buffer (pH 7.35) containing 0.3% bovine serum albumin. The samples were incubated for 3 days at 4°C before separation of free and antibody-bound ^125I-PP using dextran-coated charcoal. The sensitivity was ≤5 fmol/tube. The intra-assay coefficient of variation was 6%.

[2] = human, in vivo; cited from earlier work
Procedure: Administration of PP to humans is not associated with adverse side effects such as nausea, unlike GLP-1 analogs and, as such, is potentially a useful agent for the regulation of food intake and the treatment of obesity. PP is a relatively small peptide (4.2 kDa) and is therefore susceptible to a number of degradative enzymes and other eliminating mechanisms. PP consequently has a short circulating half-life of approximately 7 minutes in humans ([6]). This short half-life limits the use of native PP as a practical obesity treatment. To the best of our knowledge, the mechanisms for the degradati ...

T1 sequence (Q61041 whole entry): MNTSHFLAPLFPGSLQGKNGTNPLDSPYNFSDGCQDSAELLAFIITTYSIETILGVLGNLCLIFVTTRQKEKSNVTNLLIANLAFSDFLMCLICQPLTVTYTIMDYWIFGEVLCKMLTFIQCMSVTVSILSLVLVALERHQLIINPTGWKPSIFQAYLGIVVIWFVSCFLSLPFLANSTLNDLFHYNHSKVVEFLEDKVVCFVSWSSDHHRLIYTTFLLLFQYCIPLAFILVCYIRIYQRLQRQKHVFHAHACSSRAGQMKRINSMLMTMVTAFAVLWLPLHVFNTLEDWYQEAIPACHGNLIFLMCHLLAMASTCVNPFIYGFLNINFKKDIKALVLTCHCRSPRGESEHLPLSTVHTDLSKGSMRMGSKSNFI

CC[C@H](C)[C@H](NC(=O)[C@H](Cc1ccc(O)cc1)NC(=O)[C@H](CCCNC(=N)N)NC(=O)[C@H](CCCNC(=N)N)NC(=O)[C@H](CC(C)C)NC(=O)[C@H](CC(=O)O)NC(=O)[C@H](C)NC(=O)[C@H](C)NC(=O)[C@H](Cc1ccc(O)cc1)NC(=O)[C@H](CCC(N)=O)NC(=O)[C@H](C)NC(=O)[C@H](CCSC)NC(=O)[C@H](CCC(N)=O)NC(=O)[C@H](CCC(=O)O)NC(=O)[C@@H]1CCCN1C(=O)[C@@H](NC(=O)[C@H](C)NC(=O)[C@H](CC(N)=O)NC(=O)[C@H](CC(=O)O)NC(=O)CNC(=O)[C@@H]1CCCN1C(=O)[C@H](Cc1ccc(O)cc1)NC(=O)[C@@H](NC(=O)[C@@H]1CCCN1C(=O)[C@H](CCC(=O)O)NC(=O)[C@H](CC(C)C)NC(=O)[C@@H]1CCCN1C(=O)[C@H](C)N)C(C)C)[C@@H](C)O)C(=O)N[C@@H](CC(N)=O)C(=O)N[C@@H](CCSC)C(=O)N[C@@H](CC(C)C)C(=O)N[C@H](C(=O)N[C@@H](CCCNC(=N)N)C(=O)N1CCC[C@H]1C(=O)N[C@@H](CCCNC(=N)N)C(=O)N[C@@H](Cc1ccc(O)cc1)C(N)=O)[C@@H](C)O [PP, Pancreatic polypeptide]
IC50 (mouse Y4 receptor): 0.26 ± 0.04 nM | cumulative food intake at 8 hours (0- to 8-hour interval), low dose ([1]; 25 nmol/kg SC, overnight-fasted C57BL/6 mice, n = 9, mean ± SEM): 2.36 ± 0.18 g | inhibition of food intake over 24 hours vs saline ([1]; 150 nmol/kg SC, overnight-fasted C57/BL6 mice, 0 to 24 hours, n = 7): did not | cumulative food intake 0 to 8 hours ([1]; 150 nmol/kg SC, overnight-fasted C57/BL6 mice, n = 7, mean ± SEM): 0.93 ± 0.10 g | cumulative food intake at 48 hours, PP alone ([1]; PP 150 nmol/kg SC after vehicle IP, phosphoramidon study, fasted mice, mean ± SEM): 6.52 ± 0.14 g | food intake at 4 hours, PP alone ([1]; PP 150 nmol/kg SC, sitagliptin study, fasted mice, mean ± SEM): 0.91 ± 0.04 g | level at time molar at 1.5 h (in vivo; sc, 150 nmol/kg, PP alone): 1.92 ± 0.134 nM | level at time molar at 1.5 h (in vivo; sc, with phosphoramidon 7 mg/kg): 5.46 ± 0.807 nM | level at time molar at 1.5 h (in vivo; sc, with phosphoramidon 20 mg/kg): 5.3 ± 0.461 nM | level at time molar at 1.5 h (in vivo; sc, with phosphoramidon 60 mg/kg): 5.53 ± 0.348 nM | plasma levels of PP at 45 minutes, alone vs combined with any dose of phosphoramidon (in vivo; mouse): did not differ significantly | decrease of plasma level (peptide cleared) between 45 and 90 minutes after injection (in vivo; mouse, sc): ~80% | level at time molar at 0.5 h (in vivo; mouse, sc, 100 nmol/kg, plasma peptide level at 30 minutes after injection): 8.74 ± 0.744 nM | level at time molar at 2 h (in vivo; mouse, sc, 100 nmol/kg, plasma peptide level at 120 minutes after injection): 2.11 ± 0.224 nM | circulating half-life [2]: approximately 7 minutes
